Reference: US11014929B2, “Pyrazolopyrimidine compounds and uses thereof” (Incyte Corporation, priority 2016, dated 2021)

molecular target: HPK1 (Homo sapiens (Human), UniProt Q92918); test: HPK1 Kinase Binding Assay; conditions: LanthaScreen tracer 222 binding, active HPK1, one hour incubation at 25° C.
Procedure, shortened: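 Active HPK1 (added as 4 nM solution) was combined with compound (3-fold, 11-point series) and tracer 222 (18 nM) plus Eu-anti-GST antibody (4 nM) in 50 mM HEPES pH 7.5 with MgCl2 and DTT. After 1 h at 25 °C plates were read. Ki values were derived.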

Sequence of HPK1 (Q92918 1-346): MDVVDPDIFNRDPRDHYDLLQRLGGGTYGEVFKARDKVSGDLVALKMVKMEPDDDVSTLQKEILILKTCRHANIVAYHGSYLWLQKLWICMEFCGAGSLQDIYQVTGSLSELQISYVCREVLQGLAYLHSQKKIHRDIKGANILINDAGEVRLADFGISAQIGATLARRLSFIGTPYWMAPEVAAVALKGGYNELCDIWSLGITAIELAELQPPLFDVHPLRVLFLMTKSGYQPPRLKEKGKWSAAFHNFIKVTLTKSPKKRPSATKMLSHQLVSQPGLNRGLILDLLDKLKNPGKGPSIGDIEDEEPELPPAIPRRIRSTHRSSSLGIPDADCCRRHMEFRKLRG

Ki [nM] | Compound
≤ 100 | COc1cccc(F)c1-c1ncc2[nH]nc(-c3ccc(C4CCOCC4)cc3)c2n1 [Example 43, 5-(2-Fluoro-6-methoxyphenyl)-3-(4-(tetrahydro-2H-pyran-4-yl)phenyl)-1H-pyrazolo[4,3-d]pyrimidine]
≤ 100 | CS(=O)(=O)NCc1ccc(-c2n[nH]c3cnc(-c4c(F)cc5c(c4F)CNCC5)nc23)cc1 [Example 95, N-(4-(5-(6,8-Difluoro-1,2,3,4-tetrahydroisoquinolin-7-yl)-1H-pyrazolo[4,3-d]pyrimidin-3-yl)benzyl)methanesulfonamide]
≤ 100 | CNCc1cc(F)c(-c2ncc3[nH]nc(-c4cnn(C)c4)c3n2)c(F)c1 [Example 84, 1-(3,5-Difluoro-4-(3-(1-methyl-1H-pyrazol-4-yl)-1H-pyrazolo[4,3-d]pyrimidin-5-yl)phenyl)-N-methylmethanamine]
≤ 100 | COc1cccc(F)c1-c1ncc2[nH]nc(-c3ccc(F)cc3)c2n1 [Example 36, 5-(2-Fluoro-6-methoxyphenyl)-3-(4-fluorophenyl)-1H-pyrazolo[4,3-d]pyrimidine]
≤ 100 | COc1cccc(F)c1-c1ncc2[nH]nc(-c3ccnc(N4CCNCC4)c3)c2n1 [Example 50, 5-(2-Fluoro-6-methoxyphenyl)-3-(2-(piperazin-1-yl)pyridin-4-yl)-1H-pyrazolo[4,3-d]pyrimidine]
≤ 100 | Cc1cc(C2CCCN2)cc(F)c1-c1ncc2[nH]nc(-c3ccc(N4CCN(C)CC4)cc3)c2n1 (stereo not drawn) [Example 80, 5-(2-Fluoro-6-methyl-4-(pyrrolidin-2-yl)phenyl)-3-(4-(4-methylpiperazin-1-yl)phenyl)-1H-pyrazolo[4,3-d]pyrimidine]
≤ 100 | O=S(=O)(c1ccc(-c2n[nH]c3cnc(-c4c(F)cc5c(c4F)CNCC5)nc23)cc1)N1CCC1 [Example 96, 7-(3-(4-(Azetidin-1-ylsulfonyl)phenyl)-1H-pyrazolo[4,3-d]pyrimidin-5-yl)-6,8-difluoro-1,2,3,4-tetrahydroisoquinoline]

The remaining lines, values behind:

Compound | Ki [nM]
CNCc1cc(C)c(-c2ncc3[nH]nc(-c4cnn(C)c4)c3n2)c(F)c1 [Example 78, 1-(3-Fluoro-5-methyl-4-(3-(1-methyl-1H-pyrazol-4-yl)-1H-pyrazolo[4,3-d]pyrimidin-5-yl)phenyl)-N-methylmethanamine] | ≤ 100
COc1cccc(F)c1-c1ncc2[nH]nc(/C=C/c3ccc(N4CCN(C)CC4)cc3)c2n1 [Example 55, (E)-5-(2-Fluoro-6-methoxyphenyl)-3-(4-(4-methylpiperazin-1-yl)styryl)-1H-pyrazolo[4,3-d]pyrimidine] | ≤ 100
CN1CCN(c2ccc(-c3n[nH]c4cnc(-c5ccc6cccnc6c5F)nc34)cc2)CC1 [Example 101, 8-Fluoro-7-(3-(4-(4-methylpiperazin-1-yl)phenyl)-1H-pyrazolo[4,3-d]pyrimidin-5-yl)quinoline] | ≤ 100
COc1cccc(F)c1-c1ncc2[nH]nc(-c3ccc(N4CCOCC4)nc3)c2n1 [Example 53, 4-(5-(5-(2-Fluoro-6-methoxyphenyl)-1H-pyrazolo[4,3-d]pyrimidin-3-yl)pyridin-2-yl)morpholine] | ≤ 100
COc1cccc(F)c1-c1ncc2[nH]nc(-c3ccsc3)c2n1 [Example 21, 5-(2-Fluoro-6-methoxyphenyl)-3-(thiophen-3-yl)-1H-pyrazolo[4,3-d]pyrimidine] | ≤ 100
